# “And” between values parts separate entries of the source, which are not always exact repeats. Equal entries are not always repeated.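 Grown in 96-well plates, cells were treated for 48 hours with each compound at five concentrations. Insufficient inhibition: endpoint recorded as highest concentration tested. Abbreviation: GI50, concentration required for 50% inhibition of growth. The concentration for full growth arrest is given as TGI.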
# Tested on: MDA-MB-468 breast
# Experiment: NCI-60 cell line screen, 48 h
Compound,GI50,TGI
O=c1oc2cc(OS(=O)(=O)c3ccc(F)cc3)ccc2c2c1CCCCC2,3.87 µM,> 100 µM
COc1cc(/C(C#N)=C/c2ccc3c(c2OC)OCO3)cc2c1OCO2,0.0592 µM,2.07 µM
O=C(CCCCCCSc1nc(-c2ccccc2)cc(-c2ccc(Cl)cc2)n1)NO,2.02 µM,5.79 µM
COc1ccc(-c2nn3ncccc3c2-c2ccnc(Nc3ccc(Cl)c(C(F)(F)F)c3)n2)cc1,5.81 µM,> 20.9 µM
O=C(Nc1ccc(N2CCNCC2)cc1)c1[nH]ncc1Nc1ncnc2sc3c(c12)CCC3,0.481 µM,2.23 µM
COc1ccc2nc(N/N=C(\C)c3ccccn3)cc(C)c2c1,0.233 µM,0.815 µM
CS(=O)(=O)CCNCc1nc(-c2ccc3ncnc(Nc4ccc(F)c(Cl)c4)c3c2)cs1,0.257 µM,2.75 µM
Cc1cc(-c2ncc(CC(=O)Nc3ccc(-c4cnccn4)cn3)cc2C)ccn1,3.18 µM,57.5 µM
CNC(=O)c1cc(OC2CCC(NC(=O)Nc3ccc(Cl)c(C(F)(F)F)c3)CC2)ccn1 (configuration not stated),3.35 µM,14.5 µM
COCCOc1ccc2ncc(C#Cc3cncc(C(=O)Nc4ccc(CN5CCN(C)CC5)c(C(F)(F)F)c4)c3)n2n1,0.988 µM,2.8 µM
COc1ccc(Cl)cc1Nc1nc(C(F)(F)F)ccc1C(=O)N/N=C/c1c(Cl)cccc1Cl,6.66 µM,> 100 µM
Cc1ccc(-[n+]2c3cc(N)c(C)cc3nc3cc(C)c(Nc4ccccc4)cc32)cc1,0.108 µM,0.371 µM
COc1ccc(-c2nc3sc(C)cn3c2/C=C/C(=O)c2cc(OC)c(OC)c(OC)c2)cc1,2.76 µM,9.35 µM
Cc1ccc(CNc2c3ccccc3nc3ccccc23)cc1,1.49 µM,3.68 µM
CCN(CC)CCOc1nc2ccc(OC)cc2c2c1-c1ccc(OC)cc1C2=O,3.37 µM,21.7 µM
CCOc1cc2ncc(C#N)c(Nc3ccc(OCc4cccc(F)c4)c(Cl)c3)c2cc1NC(=O)CC1CCSS1 (configuration not stated),0.427 µM,1.22 µM
CNc1ccc2nc3ccc(=[N+](C)C)cc-3sc2c1,0.801 µM and 0.542 µM,2.89 µM and 3.05 µM
COc1cc2c(cc1OC)C(=O)/C(=C/c1cccc(OCC(=O)c3ccccc3)c1)C2,8.21 µM,> 100 µM

Compound,GI50,TGI
CC(=O)O[C@H]1CC[C@@]2(C)C(=CC[C@@H]3[C@@H]2CC[C@]2(C)C(c4cccnc4)=CC[C@@H]32)C1,2.62 µM,17.5 µM
C=C1CC2(OC1=O)C(=O)N(CCCCCCCN1C(=O)C3(CC(=C)C(=O)O3)c3ccccc31)c1ccccc12 (configuration not stated),0.984 µM,3.74 µM
COc1ccc2c(c1)[nH]c(=O)c1c3cc(C)c(C)cc3cn21,0.155 µM,1.59 µM
C=C1C(=O)O[C@H]2[C@H]1CC/C(COC(=O)c1cc3cc(F)ccc3[nH]1)=C\CC[C@@]1(C)O[C@@H]21,1.86 µM,3.79 µM
COc1cc(C2C=C(c3cccc(NC(C)=O)c3)Nc3ncnn32)cc(OC)c1OC (configuration not stated),0.852 µM,> 23.8 µM
COc1cc(-c2nn(-c3ccc(NC(=O)c4ccc(Cl)c(Cl)c4)cc3)cc2-c2ccncc2)ccc1Cl,4.35 µM,> 100 µM
O=C(CSc1nc2ccccc2[nH]1)Nc1ccc(-c2nc3ccccc3s2)c(Cl)c1,4.45 µM,> 100 µM
Cc1ccc2[nH]cc(-c3nc(-c4c[nH]c5ncccc45)cs3)c2c1,> 100 µM,> 100 µM
CC(=O)Nc1ccc2c(c1)c(C1=C(c3cn(C)c4ccccc34)C(=O)NC1=O)cn2C,0.79 µM,> 25 µM
CCOC(=O)c1c2c(n3ccc(NC(=O)CCN4CCCC4)cc13)C(=O)c1ncccc1C2=O,1.71 µM,3.35 µM
O=C(NNc1nc(Cl)nc(N2CCN(C(c3ccccc3)c3ccccc3)CC2)n1)c1ccccc1,1.9 µM,6.03 µM
O=[N+]([O-])C1C(c2ccccc2)C12c1ccccc1-c1ccccc12 (configuration not stated),0.582 µM,13.6 µM
CN(C)c1cccc2c(S(=O)(=O)N[C@H]3CC[C@H]4[C@@H]5CCc6cc(O)ccc6[C@H]5CC[C@]34C)cccc12,2.1 µM,9.71 µM
CCOC(=O)c1ccc(NC(=O)N2CC(C)OC(C)C2)cc1 (configuration not stated),> 100 µM,> 100 µM
O=C1NCc2ccc3c(-c4cccc(Cl)c4)c[nH]c3c21,0.231 µM,> 23.1 µM
C=C1C(=O)O[C@H]2[C@H]1CC/C(Cn1cc(CNC(=O)Cc3cn(C(=O)c4ccc(Cl)cc4)c4ccc(OC)cc34)nn1)=C\CC[C@@]1(C)O[C@@H]21,1.22 µM,2.95 µM
COC(=O)N[C@H]1CCc2c(Br)c(OC)c(OC)c(OC)c2-c2ccc(SC)c(=O)cc21,< 0.01 µM,1.23 µM
COc1cc(C2CC(c3ccc(C)cc3)=NN2C=O)ccc1Oc1ccnc2cc(Cl)ccc12 (configuration not stated),2.59 µM,37.8 µM
